The source of these data is patent US12595253B2, “Benzamides of pyrazolylamino-pyrimidinyl derivatives, and compositions and methods thereof” (LYNK PHARMACEUTICALS CO. LTD., priority 2019, dated 2026).

Series [1] in a line: Dog pharmacokinetic study (intravenous and oral). It counts as in vivo. The conditions noted are these: plasma, Beagle dogs, oral, 5 mg/kg, solution. The protocol:
Pharmacokinetic profile of test articles in rodent were evaluated in fasted male ICR mouse and Sprague-Dawley rats. […] Typically, mice were dosed with 2 mg/kg and 10 mg/kg by intravenous injection and oral gavage, respectively. Rats were dosed with 1 mg/kg and 5 mg/kg by intravenous injection and oral gavage, respectively. Beagle dogs were dosed with 1 mg/kg and 5 mg/kg by intravenous injection and oral gavage, respectively. After dosing, blood samples were collected at each time point. For IV injection group, time points were set at 5, 15, 30 min, and then 1, 2, 4, 8 and 24 hours after dosing. For oral gavage group, timepoints were set at 15, 30 m, and then 1, 2, 4, 8, and 24 hours. Blood was collected into appropriately labeled tubes containing K2EDTA as the anticoagulant. Plasma was obtained within 1 hours of blood collection by centrifugation at 8000×g and 4° C. for 6 minutes, and then stored at −20° C. until analyzed by LCMS/MS for quantification.

Series [2] is described as follows: Mini-pig dermal pharmacokinetic study. It counts as in vivo, Guangxi Bama mini-pigs. The conditions noted are these: topical administration. The source says: The aim of this study was to obtain the topical distribution of test articles in mini-pig after topical administration. Test articles were formulated in 50% PEG400, 10% transcutol and 40% PEG3350 (50% in water), and then applied to male Guangxi Bama mini-pigs (17-20 kg). Twenty-four hour prior to dosing, the hair of the mini-pig was shaved in left and right sides of the back. Two areas at least 5 cm apart at each side of the back were exposed (a total of four areas, each of which was about 112 cm^2). At the time zero, the test article was dosed to the exposed skins with […]. After dosing, the blood and skin samples were collected at 0.5, 1, 3, 6 hour. The blood was taken via venipuncture, and collected to the tubes containing heparin sodium as the anticoagulant. Exposed skin was washed with soap and water before skin sample was collected. Upon the dosed skin the punch biopsy from the epidermis layer to the muscle layer were taken at each time point. Epidermis, dermis, subcutis and subcutaneous muscle were quickly separated, weighed and frozen in dry ice. Epidermis and dermis were homogenized in 1:3 (w/v) normal saline. Homogenized samples were extracted with 3 fold volumes of acetonitrile and quantified against a standard curve with LC-MS/MS system.

Series [3] in a line: Mouse pharmacokinetic study (intravenous and oral). In kind it is in vivo. The conditions noted are these: male, plasma, ICR mice, solution. Here is the method: Pharmacokinetic profile of test articles in rodent were evaluated in fasted male ICR mouse and Sprague-Dawley rats. […] Rats were dosed with 1 mg/kg and 5 mg/kg by intravenous injection and oral gavage, respectively. Beagle dogs were dosed with 1 mg/kg and 5 mg/kg by intravenous injection and oral gavage, respectively. After dosing, blood samples were collected at each time point. For IV injection group, time points were set at 5, 15, 30 min, and then 1, 2, 4, 8 and 24 hours after dosing. For oral gavage group, timepoints were set at 15, 30 m, and then 1, 2, 4, 8, and 24 hours. Blood was collected into appropriately labeled tubes containing K2EDTA as the anticoagulant. Plasma was obtained within 1 hours of blood collection by centrifugation at 8000×g and 4° C. for 6 minutes, and then stored at −20° C. until analyzed by LCMS/MS for quantification.

The nature of series [4]: Rat pharmacokinetic study (intravenous and oral). In kind it is in vivo. The settings on record: male, plasma, Sprague-Dawley rats, intravenous, 1 mg/kg, solution.
The nature of series [5]: Rat pharmacokinetic study (intravenous and oral). In kind it is in vivo. The conditions noted are these: Sprague-Dawley rats, oral, 2 mg/kg, solution.
Series [6] in a line: Dog pharmacokinetic study (intravenous and oral). It counts as in vivo. The settings on record: plasma, Beagle dogs, oral, 20 mg/kg, solution.

As for `CC[C@@H](C#N)NC(=O)c1ccc(-c2nc(Nc3cnn(C4CCN(C)CC4)c3)ncc2C)cc1` [Example 184, (S)—N-(1-Cyanopropyl)-4-(5-methyl-2-((1-(1-methylpiperidin-4-yl)-1H-pyrazol-4-yl)amino)pyrimidin-4-yl)benzamide], in series [1], the area under the curve (AUC) – broadly, concentration integrated over time – stood at 527 ng·h/mL; the highest level (Cmax) was 125 ng/mL; the bioavailability (in general, dose-corrected exposure relative to a reference, in per cent) is 19.1%; the half-life (commonly how long it takes for the measured level to halve) is 3.15 h.
`CC[C@@H](C#N)NC(=O)c1ccc(-c2nc(Nc3cnn(C4CCNCC4)c3)ncc2Cl)cc1` [Example 183, (S)-4-(5-chloro-2-((1-(piperidin-4-yl)-1H-pyrazol-4-yl)amino)pyrimidin-4-yl)-N-(1-cyanopropyl)benzamide]: in series [1], the AUC amounted to 29.9 ng·h/mL, the highest level (Cmax) was 5.63 ng/mL, the bioavailability turned out to be 0.8% and the half-life is 3.34 h.
For `Cc1cnc(Nc2cnn(C3CC(C)(C)OC(C)(C)C3)c2)nc1-c1ccc(C(=O)NCC#N)cc1` [Example 113, N-(cyanomethyl)-4-(5-methyl-2-((1-(2,2,6,6-tetramethyltetrahydro-2H-pyran-4-yl)-1H-pyrazol-4-yl)amino)pyrimidin-4-yl)benzamide], the “Dermis, AUC0-last” value in series [2] (dermis) came to 5209.4 ng·h/g. In addition, the “Epidermis AUC0-last” value in series [2] (epidermis) came out at 107236.9 ng·h/g. In series [3] (intravenous, 1 mg/kg), this compound gave an AUC of 279 ng·h/mL, a Vd of 0.67 L/kg, a clearance of 59.5 mL/min/kg and a half-life of 0.13 h. Besides, in series [3] (oral, 5 mg/kg), the AUC was found to be 113 ng·h/mL, the highest concentration (Cmax) (usually the maximum level reached in the sampled fluid or tissue) worked out at 175 ng/mL, the bioavailability was 8.26% and the half-life is 1.7 h.
In series [1], `C[C@@H](C#N)NC(=O)c1ccc(-c2nc(Nc3cnn(C4CCNCC4)c3)ncc2Cl)cc1` [Example 165, (S)-4-(5-chloro-2-((1-(piperidin-4-yl)-1H-pyrazol-4-yl)amino)pyrimidin-4-yl)-N-(1-cyanoethyl)benzamide] displayed an area under the curve (AUC) of 27.9 ng·h/mL, a Cmax of 11 ng/mL and a bioavailability of 0.9%.
Turning to `Cc1cnc(Nc2cnn(C3CCN(C(=O)CO)CC3)c2)nc1-c1ccc(C(=O)N[C@@H](C)C#N)cc1` [Example 119, (S)—N-(1-cyanoethyl)-4-(2-((1-(1-(2-hydroxyacetyl)piperidin-4-yl)-1H-pyrazol-4-yl)amino)-5-methylpyrimidin-4-yl)benzamide], in series [1], the AUC was 93.6 ng·h/mL, the Cmax worked out at 37.9 ng/mL, the bioavailability came out at 4.6% and the half-life was 1.66 h.
As for `Cc1cnc(Nc2cnn(CC#N)c2)nc1-c1ccc(C(=O)NCC#N)cc1` [Example 4, N-(Cyanomethyl)-4-(2-((1-(cyanomethyl)-1H-pyrazol-4-yl)amino)-5-methylpyrimidin-4-yl)benzamide], in series [4], the area under the curve (AUC) amounted to 855 ng·h/mL, the Vd is 0.37 L/kg, the clearance was 19.4 mL/min/kg and the half-life was 0.22 h. This compound registered a F in series [5] of 1.9%. In series [5] (male, rat, plasma), this compound had an AUC of 29.8 ng·h/mL, a Cmax of 40.4 ng/mL and a half-life of 0.38 h. In series [6], this compound gave an AUC of 57.2 ng·h/mL, a Cmax of 58 ng/mL, a bioavailability of 1.8% and a half-life of 0.439 h.
